Test results reported in patent US11059771B2, “Warming sensation compounds” (TAKASAGO INTERNATIONAL CORPORATION, priority 2016, dated 2021).

Tests used:
[1] = system: mouth; test: Perceived warming sensations in the mouth, "swish and spit" protocol (Example 15); format: in vivo, human; conditions: 1% by weight in ethanol, diluted at 10 ppm in water, one comment per participant (5 expert evaluators)
Procedure: A warming composition was prepared by adding 1% by weight of the warming agent of Example 1 to ethanol. The resulting warming composition was diluted at 10 ppm in water. The diluted warming composition was evaluated for its perceived warming sensations in the mouth by 5 expert evaluators following a “swish and spit” protocol, in which the sample is placed into a small tasting cup, taken into the mouth, and swished around, then the sample is spit back into the original tasting cup and disposed of. Additional compounds were evaluated and compared for perceived warming sensations in the mouth by expert evaluators following the “swish and spit” protocol.

[2] = system: expert panelists; test: Warming evaluation in milk chocolate by expert panelists (Example 17); format: in vivo, human; conditions: 5% cut in MCT at 0.3% in milk chocolate; for Average Warming Intensity (1-9): 1=none, 9=very strong, control without warming compound 1.7; for Onset: panelists chose slow, medium or fast
[3] = system: panelists; test: Warming sensation in lotion, panel evaluation (Example 20); format: in vivo, human; conditions: for Overall warming intensity (1 = no effect, 5 = extremely warming): 0.5% loading in in-house lotion base, 5 panelists, control 1.25
Source text: All materials were made with 0.5% loading of active compound in an in-house lotion base except the control, which contains no active material. There were a total of 5 panelists to evaluate the lotion samples.

melting point | Structure (SMILES) | Comments (perceived warming sensations in the mouth) [1] | Average Warming Intensity (1-9) ([2]; 10 expert panelists) | Character/Comments ([2]; 10 expert panelists, listed as compound C) | Onset [2] | Heat sensation when working out (sweating) after application ([3]; 0.5% in lotion base, noticed by an evaluator) | Overall warming intensity (1 = no effect, 5 = extremely warming) [3]
56 °C | COc1cc(CC(=O)OCCOc2ccccc2)ccc1O [Example 1, 2-Phenoxyethyl 2-(4-hydroxy-3-methoxyphenyl)acetate] | Immediate burn, intense but fades really quickly | 6.8 | pleasant linger, without an irritating burn | Fast (“fast onset” relates to the onset of warming sensation in less than about 10 seconds (i.e., quick)) | the heat sensation came back at the same intensity as first described at initial application | 2.90
 | COc1ccc(CC(C)COC(=O)Cc2ccc(O)c(OC)c2)cc1 (stereo not shown) [Example 5, 3-(4-methoxyphenyl)-2-methylpropyl 2-(4-hydroxy-3-methoxyphenyl)acetate] |  | 2.25 |  | Slow (“slow onset” relates to the onset of warming sensation occurring after about 15 seconds (i.e., delayed)) |  | 1.80
 | COc1cc(CC(=O)OC/C=C(\C)CCC=C(C)C)ccc1O [Example 13, (E)-3,7-Dimethylocta-2,6-dien-1-yl 2-(4-hydroxy-3-methoxyphenyl)acetate] |  | 2.7 |  | Slow (“slow onset” relates to the onset of warming sensation occurring after about 15 seconds (i.e., delayed)) |  | 2.70
